Source: PMC5218480 (PLoS ONE, 2017)

Test system: MV-4-11 cells
Assay: Gene expression microarray analysis (Affymetrix PrimeView) and GSEA
Type: cell-based, human
Design: RFU PODN (11730768_x_at) / Fold change /veh PODN (11730768_x_at) / RFU LINC00158 (11744669_a_at) / Fold change /veh LINC00158 (11744669_a_at) / RFU DUSP10 (11751237_a_at) / Fold change /veh DUSP10 (11751237_a_at) / RFU ID3 (11757404_x_at) / Fold change /veh ID3 (11757404_x_at) / RFU PLEKHG5 (11737974_s_at) / Fold change /veh PLEKHG5 (11737974_s_at) / RFU LRRC4B (11730491_at) / Fold change /veh LRRC4B (11730491_at) / RFU GIMAP4 (11747438_a_at) / Fold change /veh GIMAP4 (11747438_a_at) / RFU KRT8 (11758183_x_at) / Fold change /veh KRT8 (11758183_x_at) / RFU CNN1 (11734310_a_at) / Fold change /veh CNN1 (11734310_a_at) / RFU VPS37D (11726825_at) / Fold change /veh VPS37D (11726825_at) / RFU C10orf10 (11716522_x_at) / Fold change /veh C10orf10 (11716522_x_at) / RFU KIR2DL2 /// KIR2DL4 /// KIR2DL5A /// KIR2DL5B /// KIR2DS1 /// KIR2DS2 /// KIR2DS3 /// KIR2DS4 /// KIR3DL3 /// KIR3DL3 /// KIR3DS1 (11738374_at) / Fold change /veh KIR2DL2 /// KIR2DL4 /// KIR2DL5A /// KIR2DL5B /// KIR2DS1 /// KIR2DS2 /// KIR2DS3 /// KIR2DS4 /// KIR3DL3 /// KIR3DL3 /// KIR3DS1 (11738374_at) / RFU C1QL1 (11718748_at) / Fold change /veh C1QL1 (11718748_at) / RFU TMPRSS4 (11747572_a_at) / Fold change /veh TMPRSS4 (11747572_a_at) / RFU HAMP (11756126_x_at) / Fold change /veh HAMP (11756126_x_at) / RFU RNFT2 (11725882_a_at) / Fold change /veh RNFT2 (11725882_a_at) / RFU NR4A2 (11747474_a_at) / Fold change /veh NR4A2 (11747474_a_at) / RFU ABCC12 (11746883_a_at) / Fold change /veh ABCC12 (11746883_a_at) / RFU TMEM136 (11760407_x_at) / Fold change /veh TMEM136 (11760407_x_at) / RFU CLDN22 /// WWC2 (11732394_at) / Fold change /veh CLDN22 /// WWC2 (11732394_at) / RFU HLA-DPB1 (11760878_x_at) / Fold change /veh HLA-DPB1 (11760878_x_at) / RFU SPINT1 (11716480_a_at) / Fold change /veh SPINT1 (11716480_a_at) / RFU GAP43 (11754022_s_at) / Fold change /veh GAP43 (11754022_s_at) / RFU A4GNT (11735810_at) / Fold change /veh A4GNT (11735810_at) / RFU PRB3 (11715151_x_at) / Fold change /veh PRB3 (11715151_x_at) / RFU TUBB4B (11761932_at) / Fold change /veh TUBB4B (11761932_at) / RFU CAPN14 (11732068_a_at) / Fold change /veh CAPN14 (11732068_a_at) / RFU TMCC2 (11721928_a_at) / Fold change /veh TMCC2 (11721928_a_at) / RFU IRGQ (11745062_a_at) / Fold change /veh IRGQ (11745062_a_at) / RFU FAM174B (11720279_a_at) / Fold change /veh FAM174B (11720279_a_at) / RFU TMPRSS4 (11748680_a_at) / Fold change /veh TMPRSS4 (11748680_a_at) / RFU FAM212B (11763350_a_at) / Fold change /veh FAM212B (11763350_a_at) / RFU PLEKHG5 (11743358_a_at) / Fold change /veh PLEKHG5 (11743358_a_at) / RFU ZSCAN30 (11745921_a_at) / Fold change /veh ZSCAN30 (11745921_a_at) / RFU CMKLR1 (11741424_a_at) / Fold change /veh CMKLR1 (11741424_a_at) / RFU LOC101060620 /// MAPK8IP1 (11723275_at) / Fold change /veh LOC101060620 /// MAPK8IP1 (11723275_at) / RFU SPTSSB (11747773_x_at) / Fold change /veh SPTSSB (11747773_x_at) / RFU PRSS12 (11739890_at) / Fold change /veh PRSS12 (11739890_at) / RFU BIN1 (11741810_x_at) / Fold change /veh BIN1 (11741810_x_at) / RFU WNT11 (11732464_a_at) / Fold change /veh WNT11 (11732464_a_at) / RFU C10orf10 (11716521_a_at) / Fold change /veh C10orf10 (11716521_a_at) / RFU C5orf56 (11738089_at) / Fold change /veh C5orf56 (11738089_at) / RFU CYB561 (11721691_x_at) / Fold change /veh CYB561 (11721691_x_at) / RFU ANKRD19P (11752326_a_at) / Fold change /veh ANKRD19P (11752326_a_at) / RFU OR2T12 /// OR2T33 /// OR2T8 (11738714_s_at) / Fold change /veh OR2T12 /// OR2T33 /// OR2T8 (11738714_s_at) / RFU VCAN (11748164_a_at) / Fold change /veh VCAN (11748164_a_at) / RFU JSRP1 (11732532_at) / Fold change /veh JSRP1 (11732532_at) / RFU KRTAP10-11 (11738290_x_at) / Fold change /veh KRTAP10-11 (11738290_x_at) / RFU MYO3A (11730013_a_at) / Fold change /veh MYO3A (11730013_a_at) / RFU EBF3 (11725865_a_at) / Fold change /veh EBF3 (11725865_a_at) / RFU CAMK2N1 (11719241_x_at) / Fold change /veh CAMK2N1 (11719241_x_at) / RFU C5orf56 (11738088_a_at) / Fold change /veh C5orf56 (11738088_a_at) / RFU OLFML3 (11715873_a_at) / Fold change /veh OLFML3 (11715873_a_at) / RFU LOC100653217 /// NTM (11731650_a_at) / Fold change /veh LOC100653217 /// NTM (11731650_a_at) / RFU MAPK11 (11762145_a_at) / Fold change /veh MAPK11 (11762145_a_at) / RFU FIZ1 (11724087_x_at) / Fold change /veh FIZ1 (11724087_x_at) / RFU OASL (11726364_x_at) / Fold change /veh OASL (11726364_x_at) / RFU SOX15 (11748057_x_at) / Fold change /veh SOX15 (11748057_x_at) / RFU CD79A (11719716_a_at) / Fold change /veh CD79A (11719716_a_at) / RFU HIST1H1D (11736915_at) / Fold change /veh HIST1H1D (11736915_at) / RFU CASKIN2 (11723855_a_at) / Fold change /veh CASKIN2 (11723855_a_at) / RFU LOC730098 (11760151_x_at) / Fold change /veh LOC730098 (11760151_x_at) / RFU OR4N2 (11742367_at) / Fold change /veh OR4N2 (11742367_at) / RFU PRRT2 (11749266_a_at) / Fold change /veh PRRT2 (11749266_a_at) / RFU SNX32 (11753110_a_at) / Fold change /veh SNX32 (11753110_a_at) / RFU CDHR5 (11726645_a_at) / Fold change /veh CDHR5 (11726645_a_at) / RFU RCAN1 (11760418_a_at) / Fold change /veh RCAN1 (11760418_a_at) / RFU FAM167A (11723789_a_at) / Fold change /veh FAM167A (11723789_a_at) / RFU FAM26E (11764081_at) / Fold change /veh FAM26E (11764081_at) / RFU ISYNA1 (11749810_s_at) / Fold change /veh ISYNA1 (11749810_s_at) / RFU ACY1 (11761880_at) / Fold change /veh ACY1 (11761880_at) / RFU 11764098_at / Fold change /veh 11764098_at / RFU SAMD14 (11745864_x_at) / Fold change /veh SAMD14 (11745864_x_at) / RFU NPB (11741838_a_at) / Fold change /veh NPB (11741838_a_at) / RFU TMPRSS6 (11731388_a_at) / Fold change /veh TMPRSS6 (11731388_a_at) / RFU KRTAP10-2 (11738614_at) / Fold change /veh KRTAP10-2 (11738614_at) / RFU ARHGAP8 /// PRR5-ARHGAP8 (11727945_x_at) / Fold change /veh ARHGAP8 /// PRR5-ARHGAP8 (11727945_x_at) / RFU KRTAP5-7 /// NADSYN1 (11734609_at) / Fold change /veh KRTAP5-7 /// NADSYN1 (11734609_at) / RFU RASL12 (11751679_a_at) / Fold change /veh RASL12 (11751679_a_at) / RFU CDKN2B (11736163_a_at) / Fold change /veh CDKN2B (11736163_a_at) / RFU PRF1 (11729649_at) / Fold change /veh PRF1 (11729649_at) / RFU, ZNF638 /// ZNF638-IT1 / Fold change vs veh, ZNF638 /// ZNF638-IT1 / RFU, PANK3 / Fold change vs veh, PANK3 / RFU, SH3YL1 / Fold change vs veh, SH3YL1 / RFU, ZEB2 / Fold change vs veh, ZEB2 / RFU, NRIP1 / Fold change vs veh, NRIP1 / RFU, PTTG1IP / Fold change vs veh, PTTG1IP / RFU, CAPN2 / Fold change vs veh, CAPN2 / RFU, MED14 / Fold change vs veh, MED14 / RFU, SNORA58 / Fold change vs veh, SNORA58 / RFU, C1orf63 / Fold change vs veh, C1orf63 / RFU, LRRFIP1 / Fold change vs veh, LRRFIP1 / RFU, NDUFAF7 / Fold change vs veh, NDUFAF7 / RFU, SLC12A2 / Fold change vs veh, SLC12A2 / RFU, IBTK / Fold change vs veh, IBTK / RFU, ESF1 / Fold change vs veh, ESF1 / Fold change vs veh, TMEM50B / RFU, TAOK1 / Fold change vs veh, TAOK1 / RFU, ACBD3 / Fold change vs veh, ACBD3 / RFU, TMA16 / Fold change vs veh, TMA16 / RFU, RWDD3 / Fold change vs veh, RWDD3 / RFU, BCAT1 / Fold change vs veh, BCAT1 / RFU, EDEM3 / Fold change vs veh, EDEM3 / RFU, TMEM33 / Fold change vs veh, TMEM33 / RFU, WDR75 / Fold change vs veh, WDR75 / RFU, AHCTF1 / Fold change vs veh, AHCTF1 / RFU, TFRC / Fold change vs veh, TFRC / RFU, ZDHHC17 / Fold change vs veh, ZDHHC17 / RFU, NOM1 / Fold change vs veh, NOM1 / RFU, ARL8B / Fold change vs veh, ARL8B / RFU, ZBTB11 / Fold change vs veh, ZBTB11 / RFU, TAMM41 / Fold change vs veh, TAMM41 / RFU, KIAA1704 /// LOC100996395 / Fold change vs veh, KIAA1704 /// LOC100996395 / RFU, ING1 / Fold change vs veh, ING1 / RFU, TRMT61B / Fold change vs veh, TRMT61B / RFU, FUBP3 / Fold change vs veh, FUBP3 / RFU, TP53 / Fold change vs veh, TP53 / RFU, TNKS2 / Fold change vs veh, TNKS2 / RFU, ZFP14 / Fold change vs veh, ZFP14 / RFU, ACTR2 / Fold change vs veh, ACTR2 / RFU, PPP3R1 / Fold change vs veh, PPP3R1 / RFU, PIK3R1 / Fold change vs veh, PIK3R1 / RFU, HNRNPA1 / Fold change vs veh, HNRNPA1 / RFU, RNF170 / Fold change vs veh, RNF170 / RFU, ZNF28 / Fold change vs veh, ZNF28 / RFU, RNGTT / Fold change vs veh, RNGTT / RFU, OGT / Fold change vs veh, OGT / RFU, BRD1 / Fold change vs veh, BRD1 / RFU, MARS / Fold change vs veh, MARS / RFU, ZNF655 / Fold change vs veh, ZNF655 / RFU, FAHD1 / Fold change vs veh, FAHD1 / RFU, BDP1 / Fold change vs veh, BDP1 / RFU, LRRCC1 / Fold change vs veh, LRRCC1 / RFU, ARID1A / Fold change vs veh, ARID1A / RFU, ZNF146 / Fold change vs veh, ZNF146 / RFU, ZNF330 / Fold change vs veh, ZNF330 / RFU, GPN3 / Fold change vs veh, GPN3 / RFU, C9orf123 / Fold change vs veh, C9orf123 / RFU, N4BP2L2 / Fold change vs veh, N4BP2L2 / RFU, ARFIP1 / Fold change vs veh, ARFIP1 / RFU, FAM179B / Fold change vs veh, FAM179B / RFU, BCL10 / Fold change vs veh, BCL10 / RFU, UHRF1BP1L / Fold change vs veh, UHRF1BP1L / RFU, BET1 / Fold change vs veh, BET1 / RFU, CNOT2 / Fold change vs veh, CNOT2 / RFU, ZNF268 / Fold change vs veh, ZNF268 / Fold change vs veh, ZNF507 / RFU, DGCR2 / Fold change vs veh, DGCR2 / RFU, WDSUB1 / Fold change vs veh, WDSUB1 / Fold change vs veh, HSP90B1 /// MIR3652 / RFU, ADSS / Fold change vs veh, ADSS / RFU, GK / Fold change vs veh, GK / RFU, ZNF148 / Fold change vs veh, ZNF148 / RFU, TAF9 / Fold change vs veh, TAF9 / RFU, SLC1A5 / Fold change vs veh, SLC1A5 / RFU, SLMO2 / Fold change vs veh, SLMO2 / RFU, ABCC4 / Fold change vs veh, ABCC4 / RFU, LOC101060439 /// RAP1B / Fold change vs veh, LOC101060439 /// RAP1B / RFU, RFX7 / Fold change vs veh, RFX7 / RFU, GTPBP10 / Fold change vs veh, GTPBP10 / RFU, CNEP1R1 / Fold change vs veh, CNEP1R1 / RFU, BIVM-ERCC5 /// ERCC5 / Fold change vs veh, BIVM-ERCC5 /// ERCC5 / RFU, ILF3 / Fold change vs veh, ILF3 / RFU 11762660_at / Fold change /veh 11762660_at / RFU VCAN (11757783_s_at) / Fold change /veh VCAN (11757783_s_at) / RFU DDX43 (11728927_at) / Fold change /veh DDX43 (11728927_at) / RFU KRT8 (11758188_x_at) / Fold change /veh KRT8 (11758188_x_at) / RFU NKD1 (11759106_at) / Fold change /veh NKD1 (11759106_at) / RFU SRD5A1 (11742802_a_at) / Fold change /veh SRD5A1 (11742802_a_at) / RFU TPSAB1 /// TPSB2 (11721975_s_at) / Fold change /veh TPSAB1 /// TPSB2 (11721975_s_at) / RFU GSTM3 (11746129_a_at) / Fold change /veh GSTM3 (11746129_a_at) / RFU IL23R (11737362_x_at) / Fold change /veh IL23R (11737362_x_at) / RFU TMEM51 (11727254_a_at) / Fold change /veh TMEM51 (11727254_a_at) / RFU PIWIL2 (11732686_x_at) / Fold change /veh PIWIL2 (11732686_x_at) / RFU ORM1 (11744905_x_at) / Fold change /veh ORM1 (11744905_x_at) / RFU CCDC152 (11743942_at) / Fold change /veh CCDC152 (11743942_at) / RFU ECM1 (11717891_a_at) / Fold change /veh ECM1 (11717891_a_at) / RFU IL23R (11748794_a_at) / Fold change /veh IL23R (11748794_a_at) / RFU TNFAIP8L3 (11732012_x_at) / Fold change /veh TNFAIP8L3 (11732012_x_at) / RFU MBOAT4 (11741988_at) / Fold change /veh MBOAT4 (11741988_at) / RFU 11764193_at / Fold change /veh 11764193_at / RFU TMEM53 (11763286_at) / Fold change /veh TMEM53 (11763286_at) / RFU MAGEB2 (11727129_at) / Fold change /veh MAGEB2 (11727129_at) / RFU TMEM200A (11744735_a_at) / Fold change /veh TMEM200A (11744735_a_at) / RFU CCDC152 (11751479_a_at) / Fold change /veh CCDC152 (11751479_a_at) / RFU FAM211A (11726209_a_at) / Fold change /veh FAM211A (11726209_a_at) / RFU RGS16 (11746705_a_at) / Fold change /veh RGS16 (11746705_a_at) / RFU VCAN (11755009_s_at) / Fold change /veh VCAN (11755009_s_at) / RFU RHOB (11743442_s_at) / Fold change /veh RHOB (11743442_s_at) / RFU RGS16 (11720943_a_at) / Fold change /veh RGS16 (11720943_a_at) / RFU RGS16 (11720944_at) / Fold change /veh RGS16 (11720944_at) / RFU, VPS4B / Fold change vs veh, VPS4B / RFU, CREB1 / Fold change vs veh, CREB1 / RFU, DNAJC13 / Fold change vs veh, DNAJC13 / RFU, GNAQ / Fold change vs veh, GNAQ / RFU, CDK5R1 / Fold change vs veh, CDK5R1 / RFU, ZRANB3 / Fold change vs veh, ZRANB3 / RFU, CUL4A / Fold change vs veh, CUL4A / RFU, CCNY / Fold change vs veh, CCNY / RFU, UFL1 / Fold change vs veh, UFL1 / RFU, COG3 / Fold change vs veh, COG3 / RFU, DIAPH2 / Fold change vs veh, DIAPH2 / RFU, SKA2 / Fold change vs veh, SKA2 / RFU, AFF3 / Fold change vs veh, AFF3 / RFU, LMF1 / Fold change vs veh, LMF1 / RFU, IPO11 / Fold change vs veh, IPO11 / RFU, DFFB / Fold change vs veh, DFFB / RFU, FOXP1 / Fold change vs veh, FOXP1 / RFU, CARD8 / Fold change vs veh, CARD8 / RFU, STRN3 / Fold change vs veh, STRN3 / RFU, ADK / Fold change vs veh, ADK / RFU, RASSF2 / Fold change vs veh, RASSF2 / RFU, WIPF1 / Fold change vs veh, WIPF1 / RFU, LARP1B / Fold change vs veh, LARP1B / RFU, RASA1 / Fold change vs veh, RASA1 / RFU, RB1 / Fold change vs veh, RB1 / RFU, PPFIA1 / Fold change vs veh, PPFIA1 / RFU, MAT2A / Fold change vs veh, MAT2A / RFU, CCT5 / Fold change vs veh, CCT5 / RFU, WDR92 / Fold change vs veh, WDR92 / RFU, CUX1 / Fold change vs veh, CUX1 / RFU, TTC7A / Fold change vs veh, TTC7A / RFU, TMEM135 / Fold change vs veh, TMEM135 / RFU, DEPTOR / Fold change vs veh, DEPTOR / RFU, CPM / Fold change vs veh, CPM / RFU, DNAJB6 / Fold change vs veh, DNAJB6 / RFU, CACNA2D3 / Fold change vs veh, CACNA2D3 / RFU, DTX4 / Fold change vs veh, DTX4 / RFU, TFCP2 / Fold change vs veh, TFCP2 / RFU, GMCL1 /// GMCL1P1 / Fold change vs veh, GMCL1 /// GMCL1P1 / RFU, AEBP2 / Fold change vs veh, AEBP2 / RFU, SNHG1 /// SNORD22 /// SNORD25 /// SNORD26 /// SNORD27 /// SNORD28 /// SNORD29 /// SNORD31 / Fold change vs veh, SNHG1 /// SNORD22 /// SNORD25 /// SNORD26 /// SNORD27 /// SNORD28 /// SNORD29 /// SNORD31 / Fold change (Aza/veh), C12orf56 (ProbeSet 11735607_a_at) / Fold change (ACY-1035/veh), C12orf56 (ProbeSet 11735607_a_at) / Fold change (Aza/veh), FGFR1OP (ProbeSet 11751329_s_at) / Fold change (ACY-1035/veh), FGFR1OP (ProbeSet 11751329_s_at) / Fold change (Aza/veh), VPS36 (ProbeSet 11739960_a_at) / Fold change (ACY-1035/veh), VPS36 (ProbeSet 11739960_a_at) / RFU SYPL1 (11715823_x_at) / Fold change /veh SYPL1 (11715823_x_at) / RFU IGFBP7 (11715501_s_at) / Fold change /veh IGFBP7 (11715501_s_at) / RFU REEP3 (11722064_at) / Fold change /veh REEP3 (11722064_at) / RFU IGLL1 (11728026_x_at) / Fold change /veh IGLL1 (11728026_x_at): dose or concentration left out as unconfirmed
Details: ProbeSet 11732433_s_at; LIST B

Nc1ncn([C@@H]2O[C@H](CO)[C@@H](O)[C@H]2O)c(=O)n1 [azacitidine]
Fold change vs veh, GK: 0.93
